This is an account of results in patent US20240158446A1, “CYCLIC COMPOUND HAVING SELECTIVE INHIBITORY ACTION ON KRAS OVER HRAS AND NRAS” (CHUGAI SEIYAKU KABUSHIKI KAISHA, priority 2021, published 2024).

The target in test [1] is GDP-bound KRAS wild-type protein (Homo sapiens, UniProt P01116). Put plainly: Binding to KRAS by surface plasmon resonance (SPR), Single Cycle Kinetics. To be noted: SPR, Single Cycle Kinetics, GDP-bound KRAS wild-type protein; read-out: KRAS KD.
Test [2] has as its target GDP-bound NRAS wild-type protein (Homo sapiens, UniProt P01111). The test is described as follows: Binding to NRAS by surface plasmon resonance (SPR), Single Cycle Kinetics. To be noted: SPR, GDP-bound NRAS wild-type protein vs GDP-bound KRAS wild-type protein. A general note: Surface plasmon resonance follows binding to a sensor surface in real time, without labels.
The target of test [3] is GDP-bound HRAS wild-type protein (Homo sapiens, UniProt P01112). Put plainly: Binding to HRAS by surface plasmon resonance (SPR), Single Cycle Kinetics. The settings on record: SPR, GDP-bound HRAS wild-type protein vs GDP-bound KRAS wild-type protein.
GDP-bound HRAS wild-type protein, sequence (P01112 whole entry): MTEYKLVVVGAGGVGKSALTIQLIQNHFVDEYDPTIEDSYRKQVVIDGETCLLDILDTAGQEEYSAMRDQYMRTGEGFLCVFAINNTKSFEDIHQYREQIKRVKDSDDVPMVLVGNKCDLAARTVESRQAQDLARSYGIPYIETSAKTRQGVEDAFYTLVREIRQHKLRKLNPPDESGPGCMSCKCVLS

GDP-bound KRAS wild-type protein, sequence (P01116 whole entry): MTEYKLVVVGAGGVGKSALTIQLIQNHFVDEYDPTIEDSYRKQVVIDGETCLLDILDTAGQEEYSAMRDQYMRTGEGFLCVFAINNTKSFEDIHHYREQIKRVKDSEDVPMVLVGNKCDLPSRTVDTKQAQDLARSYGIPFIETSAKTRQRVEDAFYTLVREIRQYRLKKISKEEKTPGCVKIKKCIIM
GDP-bound NRAS wild-type protein, sequence (P01111 whole entry): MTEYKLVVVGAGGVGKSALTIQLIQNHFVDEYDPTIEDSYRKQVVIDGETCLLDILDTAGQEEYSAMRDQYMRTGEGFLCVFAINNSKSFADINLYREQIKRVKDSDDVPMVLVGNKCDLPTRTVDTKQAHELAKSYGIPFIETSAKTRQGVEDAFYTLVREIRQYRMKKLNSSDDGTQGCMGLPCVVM

Broadly, the Kd is the concentration at which binding is half-saturated. Turning to `CCO[C@@H]1C[C@H]2C(=O)NC3(CCC3)C(=O)N(C)[C@@H](C3CCCC3)C(=O)N(C)[C@H](C(=O)N(C)C)CC(=O)N(C)[C@@H](CC)C(=O)N[C@@H]([C@@H](C)CC)C(=O)N(C)CC(=O)N(C)[C@H]3C/C=C\CCN(C3=O)[C@@H](Cc3ccc(C(F)(F)F)cc3)C(=O)N(C)CC(=O)N[C@@H](CCc3cc(F)c(C(F)(F)F)c(F)c3)C(=O)N2C1` [PP0824, (2S,8S,12R,14S,20S,23S,27S,30S,36S,38Z)-20-cyclopentyl-8-[2-[3,5-difluoro-4-(trifluoromethyl)phenyl]ethyl]-12-ethoxy-27-ethyl-N,N,4,19,22,26,32,35-octamethyl-30-[(1S)-1-methylpropyl]-3,6,9,15,18,21,25,28,31,34,42-undecaoxo-2-[[4-(trifluoromethyl)phenyl]methyl]spiro[1,4,7,10,16,19,22,26,29,32,35-undecazatricyclo[34.5.1.0^10,14]dotetracont-38-ene-17,1′-cyclobutane]-23-carboxamide], in test [1], the Kd turned out to be 0.055 nM. Also, the “NRAS/KRAS (ratio of KD value for NRAS to KD value for KRAS)” value in test [2] is “A (a compound having 10 or more and less than 20 is denoted as A)”. Further, in test [3], the “HRAS/KRAS (ratio of KD value for HRAS to KD value for KRAS)” value is “A (a compound having 10 or more and less than 20 is denoted as A)”.
Regarding `CCO[C@@H]1C[C@H]2C(=O)NC3(CCC3)C(=O)N(C)[C@@H](C3CCCC3)C(=O)N(C)[C@H](C(=O)N3CCOCC3)CC(=O)N(C)[C@@H](CC(C)C)C(=O)N[C@@H]([C@@H](C)CC)C(=O)N(C)CC(=O)N(C)[C@H]3C/C=C\CCN(C3=O)[C@@H](Cc3ccc(C(F)(F)F)cc3)C(=O)N(C)CC(=O)N[C@@H](CCc3ccc(C(F)(F)F)c(Cl)c3)C(=O)N2C1` [PP0825, (2S,8S,12R,14S,20S,23S,27S,30S,36S,38Z)-8-[2-[3-chloro-4-(trifluoromethyl)phenyl]ethyl]-20-cyclopentyl-12-ethoxy-27-isobutyl-4,19,22,26,32,35-hexamethyl-30-[(1S)-1-methylpropyl]-23-(morpholine-4-carbonyl)-2-[[4-(trifluoromethyl)phenyl]methyl]spiro[1,4,7,10,16,19,22,26,29,32,35-undecazatricyclo[34.5.1.0^10,14]dotetracont-38-ene-17,1′-cyclobutane]-3,6,9,15,18,21,25,28,31,34,42-undecone], in test [1], the Kd amounted to 0.23 nM. The “NRAS/KRAS (ratio of KD value for NRAS to KD value for KRAS)” value in test [2] is “A (a compound having 10 or more and less than 20 is denoted as A)”. For the same compound, the “HRAS/KRAS (ratio of KD value for HRAS to KD value for KRAS)” value in test [3] was “A (a compound having 10 or more and less than 20 is denoted as A)”.
For `CCO[C@@H]1C[C@H]2C(=O)NC3(CCC3)C(=O)N(C)[C@@H](C3CCCC3)C(=O)N(C)[C@H](C(=O)N(C)C)CC(=O)N(C)[C@@H](CC)C(=O)N[C@@H]([C@@H](C)CC)C(=O)N(C)CC(=O)N(C)[C@H]3CC=C(C)CN(C3=O)[C@@H](Cc3ccc(C(F)(F)F)cc3)C(=O)N(C)CC(=O)N[C@@H](CCc3cc(F)c(C(F)(F)F)c(F)c3)C(=O)N2C1` [PP0827], in test [1], the equilibrium dissociation constant (Kd) was 0.11 nM. The “NRAS/KRAS (ratio of KD value for NRAS to KD value for KRAS)” value in test [2] is “C (A compound having a KD ratio of 0.1 or more and less than 3 is denoted as C)”. Moreover, the “HRAS/KRAS (ratio of KD value for HRAS to KD value for KRAS)” value in test [3] was “C (A compound having a KD ratio of 0.1 or more and less than 3 is denoted as C)”.
As to `CCO[C@@H]1C[C@H]2C(=O)NC3(CC(F)(F)C3)C(=O)N(C)[C@@H](C3CCCC3)C(=O)N(C)[C@H](C(=O)N3CCOCC3)CC(=O)N(C)[C@@H](CC(C)C)C(=O)N[C@@H]([C@@H](C)CC)C(=O)N(C)CC(=O)N(C)[C@H]3CC=C(C)CN(C3=O)[C@@H](Cc3ccc(C(F)(F)F)cc3)C(=O)N(C)CC(=O)N[C@@H](CCc3cc(F)c(C(F)(F)F)c(F)c3)C(=O)N2C1` [PP0828], the dissociation constant Kd in test [1] was 0.17 nM. Also, the “NRAS/KRAS (ratio of KD value for NRAS to KD value for KRAS)” value in test [2] is “C (A compound having a KD ratio of 0.1 or more and less than 3 is denoted as C)”. Besides, the “HRAS/KRAS (ratio of KD value for HRAS to KD value for KRAS)” value in test [3] is “C (A compound having a KD ratio of 0.1 or more and less than 3 is denoted as C)”.
